Test [1] addresses T1, apoA-I[L178P] (Homo sapiens, UniProt P02647, L202P).
T1 construct: gene APOA1; recombinant lipid-free apoA-I (243 residues) expressed in E. coli, thioredoxin/His tag removed with 3C protease
The test can be described thus: ITC (also Tm shift by CD thermal denaturation, EC50 […]; TSA; ANS). The class given is binding.

For test [2], the target named is T1, apoA-I[L178P]. The description is as above. Format: binding. This is another data set of the same source.

Like-named read-outs stand apart in the source and are kept apart here.

The values that follow come from publication PMC11106541, “Library screening identifies commercial drugs as potential structure correctors of abnormal apolipoprotein A-I” (Journal of Lipid Research, 2024).

T1 sequence (P02647 25-267 L202P): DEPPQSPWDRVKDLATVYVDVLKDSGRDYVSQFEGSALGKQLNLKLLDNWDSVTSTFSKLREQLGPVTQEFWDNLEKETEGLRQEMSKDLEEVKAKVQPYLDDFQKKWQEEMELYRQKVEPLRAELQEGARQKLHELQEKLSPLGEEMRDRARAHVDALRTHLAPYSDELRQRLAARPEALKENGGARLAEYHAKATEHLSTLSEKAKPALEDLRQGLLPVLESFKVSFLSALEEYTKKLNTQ

For the compound `CC(C)c1c(C(=O)Nc2ccccc2)c(-c2ccccc2)c(-c2ccc(F)cc2)n1CC[C@@H](O)C[C@@H](O)CC(=O)O` [C8, atorvastatin], the EC50 (as a rule, the concentration needed to bring the measured effect to its halfway point) on apoA-I[L178P] [1] was determined as 400 µM. For `C=C(c1ccc(C(=O)O)cc1)c1cc2c(cc1C)C(C)(C)CCC2(C)C` [C9-p1, bexarotene], the EC50 on apoA-I[L178P] [2] stood at 98 µM.
